The subject of experiment [1] is CFA-induced mechanical hyperalgesia. Description: CFA model of rheumatoid arthritis pain in rats (joint compression thresholds). Type of experiment: in vivo, male Sprague-Dawley rats. The settings on record: for improvement of compression thresholds vs vehicle: 30 mg/kg PO. As for the experimental part: Following IACUC approval and acclimation, inflammatory arthritis pain was induced in 55 male, Sprague-Dawley rats by intracapsular injection of 50 μL of 100% complete Freund's adjuvant (CFA) into the tibio-tarsal joint of the left hind leg. Mechanical hyperalgesia was assessed via joint compression thresholds (JCTs), JCTs were determined prior to CFA injection and 14 days post-CFA, prior to study article administration. At that time, 50 animals that met the inclusion criterion were randomly assigned to 5 groups with 10 animals per group (Table 3). To further confirm the validity as a model for arthritic pain, the anti-inflammatory cyclooxygenase-2 inhibitor, celecoxib, was used as an active control.
Animals were administered a single dose of test or control compound on day 0 (i.e., 14 days after administration of CFA) and thresholds were determined 1, 2, and 4 hours after compound administration. JCTs in test compound-treated animals were compared to those in vehicle-treated animals to determine the analgesic efficacy of the test compound. All behavioral evaluations were performed by a blinded observer.
Mechanical hyperalgesia was measured using a digital Randall-Selitto device (dRS; IITC Life Sciences©; Woodland Hills, Calif.; see Randall, L. O., and J. J. Selitto, “A Method for Measurement of Analgesic Activity on Inflamed Tissue.” Arch. Int. Pharmcodyn. 11 (1957): 409-19). Animals were allowed to acclimate to the testing room for a minimum of 15 minutes before testing. Animals were placed in a restraint sling that suspended the animal, leaving the hind limbs available for testing. The stimulus was applied to the ankle joint by a blunt tip and pressure was applied gradually over approximately 10 seconds. Joint compression threshold values were recorded at the first observed nocifensive behavior (vocalization, struggle, or withdrawal). One reading per joint was taken at each time point, and a maximum stimulus cutoff of 500 grams was used to prevent injury to the animal. The mean and standard error of the mean (SEM) were determined for ipsilateral and contralateral joints for each treatment group at each time point.
All testing was performed in a blinded manner, with all experimenters involved in the study being unaware of the group assignment of any animal they were testing. Animals were assigned to treatment groups based on Day 0 pre-dosing JCTs so that group means of the ipsilateral JCTs were approximately equal. Animals were ranked by ipsilateral JCT and treatments assigned randomly within stratified sub-groups according to the total number of treatment groups in the study. The volume of test or control article injected was 5 mL/kg. The animals were dosed in sequence based on animal number so that the distribution of treatment across a given set of animals was not predictable.

Experiment [2] deals with SNL-induced mechanical hyperalgesia. The experiment can be described thus: Spinal nerve ligation (SNL) model for neuropathic pain in the rat (paw compression thresholds). Type of experiment: in vivo, male Sprague-Dawley rats. As for the experimental part: Following IACUC approval and acclimation, neuropathy was induced in 55 male, Sprague-Dawley rats by surgically ligating the 5th and 6th lumbar spinal nerves (L5 and L6), a procedure also known as spinal nerve ligation (SNL). Mechanical sensitivity was assessed via paw compression thresholds using a digital Randall-Selitto device. Thresholds were determined prior to surgery and 15 days post-surgery, prior to study article administration. At that time, 50 animals that met the inclusion criteria were assigned to 5 groups with 10 animals per group (Table 5). To further confirm the validity as a model for neuropathic pain, gabapentin was used as an active control.
Animals were administered a single dose of test or control compound on day 0 (i.e., 15 days after SNL) and thresholds were determined 1, 2, and 4 hours after compound administration. Response thresholds in test compound-treated animals were compared to those in vehicle-treated animals to determine the analgesic efficacy of the test compound. All behavioral evaluations were performed by a blinded observer.
Mechanical hyperalgesia was measured using a digital Randall-Selitto device (dRS; IITC Life Sciences©; Woodland Hills, Calif.) (see Randall, L. O., and J. J. Selitto. “A Method for Measurement of Analgesic Activity on Inflamed Tissue.” Arch. Int. Pharmcodyn. 11 (1957): 409-19). Animals were allowed to acclimate to the testing room for a minimum of 15 minutes before testing. Animals were placed in a restraint sling that suspends the animal, leaving the hind limbs available for testing. The stimulus was applied to the plantar surface of the hind paw by a cone-shaped tip and pressure was applied gradually over approximately 10 seconds. Paw compression threshold values were recorded at the first observed nocifensive behavior (vocalization, struggle, or withdrawal). One reading per paw was taken at each time point, and a maximum stimulus cutoff of 300 grams was used to prevent injury to the animal. The mean and standard error of the mean (SEM) were determined for ipsilateral and contralateral paws for each treatment group at each time point.
All testing was performed in a blinded manner, with all experimenters involved in the study being unaware of the group assignment of any animal they were testing.
Animals were assigned to treatment groups based on Day 0 pre-dosing dRS paw compression thresholds so that group means of the ipsilateral paw compression thresholds were approximately equal. Animals were ranked by ipsilateral paw compression threshold measurement from lowest to highest and treatments assigned randomly within stratified sub-groups according to the total number of treatment groups in the study.
The volume of test or control article injected was 5 mL/kg. The animals were dosed in sequence based on animal number, so that the distribution of treatment across a given set of animals was not predictable.

The test system of experiment [3] is formalin-evoked spontaneous nociceptive behaviors. The experiment can be described thus: Formalin model of pain in mice. The format is in vivo, C57BL6 mice. As for the experimental part:
The objective of this study was to evaluate the effects of Compound 1 and a peripherally-restricted kappa agonist (ICI204448) on formalin-evoked spontaneous nociceptive behaviors in mice. The study was performed by video recording of formalin-induced nociceptive behavior and then off-line scoring using a computer.
Subcutaneous plantar injection of formalin causes a bi-phasic nocifensive behavioral response in rodents. The early phase (phase 1) lasts for about 5-10 minutes, following which an interphase occurs without any discernible nociceptive reactions, after which the late phase (phase 2) nociceptive reaction ensues continuing from about 20-60 min following formalin injection. Thus, phase 2 of the formalin model is a model of continuously present, persistent pain, and is widely used for rapid screening of novel analgesic compounds. The model encompasses inflammatory, neurogenic and central mechanisms of nociception, and the late phase (phase 2), in particular, is considered as a pharmacodynamic surrogate of central sensitization.
In the present study, the effects of Compound 1 and ICI204448 were assessed from 0-5 minutes for the early phase (phase 1) and from 20-35 minutes for the late phase (phase 2) of formalin-induced nociceptive behavior.
Following IACUC approval and acclimation C57BL6 mice (Charles River Canada Inc.), 20-30 g, were randomly assigned into groups with 8 mice per group as provided in Table 1:
All animals were acclimated to the observation chamber for about 15 minutes immediately prior to formal in injection. […]
Following injection of the formalin all animals were returned immediately to the observation chamber and formalin-evoked spontaneous nociceptive behaviors in the mice were continuously recorded for 0-40 minutes using a commercial camcorder. […]
Scoring from the recorded video files were done off-line using a computer by a blinded observer who has been validated to score such nociceptive behaviors in rodents. The total (cumulative) time spent in a 5-minute bin was recorded using a stop-watch for the following nociceptive behaviors: biting and licking of the formalin-injected paw.
Effects of the ICI204448 or Compound 1 were assessed in the following time periods: 0-5 minutes for the early phase (phase 1) and 20-35 minutes for the late phase (phase 2).
Mice were injected with formalin in the hind paw after pretreatment with vehicle, high and low doses of a peripherally-restricted kappa opioid agonist (ICI204448) and high and low doses of the peripherally-restricted Compound 1. Pain was measured for 35 minutes after injection. Additionally, urine output was measured using metabolic cages in each group of mice. […]

The test system of experiment [4] is osteolytic bone cancer pain induced by MRMT-1 inoculation. Description: MRMT-1 model of osteolytic bone cancer pain in the rat (percent weight bearing score). Type of experiment: in vivo, female Sprague-Dawley rats. As for the experimental part: Osteolytic bone cancer was produced by an injection of 3000 mammary gland carcinoma cells (MRMT-1) into the intramedullary space of the tibia. Animals received either vehicle or Compound 1 (10 mg/kg) intraperitoneally on Day 0. Morphine (6 mg/kg) served as the positive control for this study and was administered via subcutaneous injection. Bone cancer pain was assessed by measuring hind limb percent weight bearing scores (percent WBS) prior to inoculation (study day −21), and prior to administration (BL), 1, 2, and 4 hours after administration on Day 0.
Hind limb weight bearing scores (WBS) are measured using a Linton Incapacitance Tester (Stoelting Co.©, Wood Dale, Ill.; see Medhurst, S. J., K. Walker, M. Bowes, B. L. Kidd, M. Glatt, M. Muller, M. Hattenberger, J. Vaxelaire, T. O'Reilly, G. Wotherspoon, J. Winter, J. Green, and L. Urban. “A Rat Model of Bone Cancer Pain.” Pain 96 (2002): 129-40). Animals were allowed to acclimate to the testing room for a minimum of 15 minutes before testing. Animals are placed in an acrylic test chamber. When the animal is in the correct position in the test chamber an evaluation of force was taken, with the evaluation measuring the average force exerted individually by each hind paw over a three second interval. Three evaluations of force per animal are taken at each time point. The percent WBS for the injured leg is calculated for each evaluation of force using the following formula: […]
The mean of the 3% WBS values is taken as the % WBS for that time point. The mean and standard error of the mean (SEM) are determined for each treatment group at each time point.
Dosing: The volume of test or negative control article injected was 5 mL/kg via intraperitoneal injection or 2 mL/kg via subcutaneous injection for morphine. The animals were dosed in sequence based on animal number, so that the distribution of treatment across a given set of animals was not predictable (Table 7).

As for `Cc1ccc(-c2cc(C(F)(F)F)nn2-c2ccc(S(N)(=O)=O)cc2)cc1` [Celecoxib, reference compound], the “improvement of compression thresholds vs vehicle” value is on record as “did not significantly improve thresholds” in experiment [1] (1-hour); “did show improvement compared to vehicle” in experiment [1] (2-hour and 4-hour).

Turning to `CC(C)C[C@H]1CN2C(=CC3=NC[C@H](C(C)C)N3C[C@@H]2Cc2ccc(O)cc2)N1CCc1ccccc1` [Compound 1, 4-(((2S,5S,8S)-2-isobutyl-8-isopropyl-1-phenethyl-2,3,5,6,8,9-hexahydro-1H-diimidazo[1,2-d:2′,1′-g][1,4]diazepin-5-yl)methyl)phenol], the “reversal of SNL-induced mechanical hyperalgesia” value is listed as “did not significantly reverse SNL-induced mechanical hyperalgesia” in experiment [2] (1 mg/kg IP, any time point tested (1, 2, 4 hours)); “did not significantly reverse SNL-induced mechanical hyperalgesia” in experiment [2] (5 mg/kg IP, 1-hour); “did significantly reverse SNL-induced mechanical hyperalgesia” in experiment [2] (5 mg/kg IP, 2-hour and 4-hour); “did not significantly reverse SNL-induced mechanical hyperalgesia” in experiment [2] (10 mg/kg IP, 1-hour); “did significantly reverse SNL-induced mechanical hyperalgesia” in experiment [2] (10 mg/kg IP, 2-hour and 4-hour). The “reversal of mechanical hyperalgesia compared with active control” value in experiment [2] (Compound 1 5 mg/kg and 10 mg/kg vs gabapentin 100 mg/kg) is given as “did not differ significantly from the active control, gabapentin”. Further, the “reversal of mechanical hyperalgesia (JCT)” value is “significantly reversed mechanical hyperalgesia” in experiment [1] (1 mg/kg IP, 2-hour and 4-hour); “significantly reversed mechanical hyperalgesia” in experiment [1] (5 mg/kg IP, 2-hour and 4-hour); “significantly reversed mechanical hyperalgesia” in experiment [1] (10 mg/kg IP, 1, 2, and 4 hours post dose). For the same compound, in experiment [1] (Compound 1 IP vs celecoxib 30 mg/kg PO), the “reversal in mechanical hyperalgesia compared with active control” value was “comparable to the active control, celecoxib”. In experiment [3] (1 mg/kg IP, phase 2, compared with ICI204448 10 mg/kg), the “pain behaviors, effect of low dose” value is “the same effect as a high dose of ICI204448”. Besides, in experiment [3] (10 mg/kg IP, phase 2), the “pain response, effect of high dose” value was “complete elimination of the pain response”. In addition, in experiment [3] (30-35 minutes, Compound 1 dose less than 10% of ICI204448 on a molar basis), the “time spent on pain (nociceptive) behaviors vs ICI204448” value is on record as “at least as effective as ICI204448”. Also, the “pain behaviors (biting and licking of formalin-injected paw)” value in experiment [3] (IP 30 min before formalin, 20-25, 25-30, 30-35 minutes (phase 2), compared with vehicle and ICI204448) is given as “reduced pain behaviors”. The “reversal of hind limb weight bearing asymmetry vs pre-dosing baseline” value in experiment [4] (10 mg/kg IP, 4 hours) is listed as “significant reversal of hind limb weight bearing asymmetry”.

As to `NCC1(CC(=O)O)CCCCC1` [Gabapentin, reference compound], the “reversal of SNL-induced mechanical hyperalgesia” value in experiment [2] (100 mg/kg IP, 1, 2, and 4-hours) was “significantly reversed SNL-induced mechanical hyperalgesia”.

For `CN1CC[C@]23c4c5ccc(O)c4O[C@H]2[C@@H](O)C=C[C@H]3[C@H]1C5` [Morphine], the “reversal of hind limb weight bearing asymmetry vs pre-dosing baseline” value in experiment [4] (6 mg/kg subcutaneous, 1 and 2 hours) is on record as “time-dependent reversal of hind limb weight bearing asymmetry”. In experiment [4] (6 mg/kg subcutaneous, 4-hours), the improvement in weight-bearing entry is recorded as “did not produce significant improvement”.

Source of the values: US11185551B2, “Peripherally-restricted dual-acting kappa and delta opioid agonist for analgesia in pain states involving the inflammatory response” (Caventure Drug Discovery, Inc., priority 2017, dated 2021).
